Experimental data: patent publication US12036222B2, “Methods of treating cancers overexpressing CARM1 with EZH2 inhibitors and a PARP inhibitor” (The Wistar Institut of Anatomy and Biology, priority 2018, dated 2024)
“Also recorded” adds a separate entry of the source.

Key:
[1] = system: HOSE or FTE cells; assay: Colony formation assay in normal HOSE and FTE cells; type: cell-based, human; conditions: 10 μM GSK126, colony formation
Description: (§1) FIG. 33 illustrates relative growth of the indicated HOSE, FTE, and EOC cancer cell lines with high or low CARM1 expression treated with 10 μM GSK126 or vehicle in a colony formation assay as determined by NIH Image J quantification.
(§2) 500 to 5,000 cell were plated into a 24 well tissue culture plate and treated with the indicated compounds. Medium was changed every three days with appropriate drug doses for 12 days or until control wells became confluent. Colonies were washed twice with PBS and fixed with 10% methanol and 10% acetic acid in distilled water. Fixed colonies were stained with 0.005% crystal violet. Integrated density was measured using NIH ImageJ software.

[2] = system: CARM1-low EOC cells such as CAOV3 and PEO1; assay: Colony formation assay in CARM1-low EOC cells; type: cell-based, human; conditions: 10 μM GSK126
Description: as §1, §2

[3] = system: CARM1-expressing tumors; assay: Immunohistochemistry and qRT-PCR of dissected CARM1-expressing tumors; type: in vivo, mice
Description: FIG. 79 illustrates immunohistochemical analysis for serial sections of tumors dissected from the indicated treatment groups where the tumor sections were stained for H3K27Me3, EZH2, cleaved caspase 3, and Ki67. Scale bar=50 μm.
FIG. 80 illustrates histological scoring (H-score) of the indicated proteins that was calculated for 3 separate fields from 5 tumors from 5 individual mice from each of the indicated groups.
FIG. 81 illustrates the expression of the indicated EZH2/BAF155 target genes that was determined by qRT-PCR in the tumors dissected from the indicated treatment groups.
The observed tumor growth suppression in vivo was correlated with the molecular pathways underlying the CARM1-dependent effects of EZH2 inhibition. To do so, immunohistochemical (IHC) analysis was performed for markers of cell proliferation (Ki67), apoptosis (cleaved caspase 3), H3K27Me3 and EZH2. […] Finally, the observed decrease in cell proliferation and increase in apoptosis correlated with the upregulation of the identified CARM1-regulated EZH2/BAF155 target genes such as DAB2, DLC1 and NOXA by the EZH2 inhibitor GSK126 in vivo (FIG. 81).

[4] = system: promoter regions of the human DAB2, DLC1, and NOXA genes; assay: ChIP-qPCR at promoters of EZH2/BAF155 target genes; type: cell-based; conditions: A1847 cells
Excerpt: FIGS. 58 to 61 illustrate the results of a ChIP analysis using anti-EZH2 (FIG. 58), anti-H3K27Me3 (FIG. 59), anti-BAF155 (FIG. 60), or anti-RNA Pol II (FIG. 61) antibodies. An isotype matched IgG was used as a negative control. ChIP products were subjected to qPCR analysis using primers specific for the promoter regions of the human DAB2, DLC1, and NOXA genes. Data is representative of three independent experiments. * p<0.001 compared with IgG controls and #p<0.001 compared with parental controls.
ChIP was performed as described in Tu et al. Developmental Cell(2011) 21:1077-91. The following antibodies were used to perform ChIP: anti-H3K27Me3 (Cell Signaling, Cat. No: 9733), anti-BAF155 (Santa Cruz, Cat. No: sc-9746), anti-RNA polymerase II (Santa Cruz, Cat. No: sc-899) or anti-EZH2 (Cell Signaling, Cat. No: 5246). An isotype matched IgG was used as a negative control. ChIP DNA was analyzed by quantitative PCR against the promoter of the indicated genes using the following primers: DAB2 Forward: 5′-[…]-3′ (SEQ ID NO: 10) and DAB2 Reverse: 5′-[…]-3′ (SEQ ID NO: 11); DLC1 Forward: 5′-[…]-3′ (SEQ ID NO: 12) and DLC1 Reverse: 5′-[…]-3′ (SEQ ID NO: 13); NOXA Forward: 5′-[…]-3′ (SEQ ID NO: 14) and NOXA Reverse: 5′-[…]-3′ (SEQ ID NO: 15); TIMP3 Forward: 5′-[…]-3′ (SEQ ID NO: 16) and TIMP3 Reverse: 5′-[…]-3′ (SEQ ID NO: 17).

[5] = system: BAF155Me; assay: Immunoblot for BAF155Me levels; type: cell-based, human; conditions: 10 μM GSK126, 7 days
Description: FIG. 53 illustrates that the indicated CARM1-high cells were infected with the indicated shCARM1 or controls. Expression of CARM1 and BAF155Me levels and loading control (p-actin) was determined by immunoblot. FIG. 54 illustrates that the indicated cells were treated with 10 μM GSK126 or vehicle control for 7 days. Expression of BAF155 and a loading control (0-actin) was determined by immunoblot.

[6] = system: CARM1-depleted cells; assay: Colony formation assay with CARM1-depleted cells; type: cell-based; conditions: CARM1-depleted vs normal cells, GSK126 vs DMSO
Description: To confirm the relationship between CARM1 overexpression and sensitivity to EZH2 inhibition, further studies were performed to assess the impact of CARM1 depletion. In FIG. 9, a Western blot of CARM1 and BAF155me2 in CARM1 depleted cells with a control (Actin) is shown. In addition, the results of a colony formation assay (unstained, magnified) with normal and CARM1-depleted cells, in DMSO (control) and treated with GSK126, are shown in FIG. 10. A colony formation assay with normal and CARM1-depleted cells, in DMSO (control) and after treatment with GSK126 is shown in FIG. 11, with the results quantified in FIG. 12. Finally, FIG. 13 illustrates the results of treatment of CARM1 depleted cells with GSK126.
as §2

[7] = system: parental and CARM1 knockout A1847 cells, CARM1 high OVCAR10 cells; assay: Apoptosis markers (Annexin V, cleaved caspase 3, cleaved PARP); type: cell-based, human; conditions: 10 μM GSK126, 7 days; CARM1-dependent manner
Description: FIG. 37 illustrates control parental and CARM1 knockout A1847 cells were treated with 10 μM GSK126 or vehicle for 7 days. Percentage of Annexin V positive apoptotic cells was quantified. *p<0.001 and #p>0.05.
FIG. 38 illustrates levels of cleaved caspase 3 and cleaved PARP in control parental and CARM1 knockout A1847 cells treated with 10 μM GSK126 for 7 days. Expression of 3-actin was used as a loading control.
FIG. 39A illustrates the expression of apoptosis markers cleaved in CARM1 high OVCAR10 cells as a result of treatment with GSK126. CARM1 high OVCAR10 cells were treated with 10 μM GSK126 or vehicle control for 7 days. The expression of apoptosis markers cleaved caspase 3 and cleaved PARP were determined by immunoblot. Expression of β-actin was used as a loading control.
Phosphatidylserine externalization was detected using an Annexin V staining kit (Millipore) following the manufacturer's instructions. Annexin V-positive cells were detected using the Guava System and analyzed with the Guava Nexin software Module (Millipore).

CC[C@H](C)n1cc(C)c2c(C(=O)NCc3c(C)cc(C)[nH]c3=O)cc(-c3ccc(N4CCNCC4)nc3)cc21 [GSK126, (S)-1-(sec-butyl)-N-((4,6-dimethyl-2-oxo-1,2-dihydropyridin-3-yl)methyl)-3-methyl-6-(6-(piperazin-1-yl)pyridin-3-yl)-1H-indole-4-carboxamide]
growth of HOSE or FTE cells [1]: did not affect the growth; also recorded: didn't affect the growth | response of CARM1-low EOC cells [2]: did not respond | EZH2 staining ([3]; IHC): did not affect EZH2 staining | H3K27Me3 staining ([3]; IHC): decreased | expression of Ki67 ([3]; IHC): decreased the expression of Ki67 | expression of cleaved caspase 3 ([3]; IHC): increased the expression of cleaved caspase 3 | expression of EZH2/BAF155 target genes DAB2, DLC1 and NOXA in vivo ([3]; qRT-PCR): upregulation | EZH2 association with target genes [4]: without affecting EZH2's association with its target genes | H3K27Me3 occupancy at target gene loci [4]: decreased H3K27Me3 occupancy | BAF155Me levels [5]: did not affect BAF155Me levels | sensitivity after CARM1 depletion [6]: abrogating the sensitivity | markers of apoptosis [7]: induced
